Values quoted from earlier work, collected in patent US20110171165A1 (priority 2008, published 2011).

Biological target: δ receptors (Cavia porcellus, UniProt A0A286XTF2)
Details: read-out: affinity for δ receptors; guinea-pig brain membranes

δ receptors, sequence (A0A286XTF2 1-366): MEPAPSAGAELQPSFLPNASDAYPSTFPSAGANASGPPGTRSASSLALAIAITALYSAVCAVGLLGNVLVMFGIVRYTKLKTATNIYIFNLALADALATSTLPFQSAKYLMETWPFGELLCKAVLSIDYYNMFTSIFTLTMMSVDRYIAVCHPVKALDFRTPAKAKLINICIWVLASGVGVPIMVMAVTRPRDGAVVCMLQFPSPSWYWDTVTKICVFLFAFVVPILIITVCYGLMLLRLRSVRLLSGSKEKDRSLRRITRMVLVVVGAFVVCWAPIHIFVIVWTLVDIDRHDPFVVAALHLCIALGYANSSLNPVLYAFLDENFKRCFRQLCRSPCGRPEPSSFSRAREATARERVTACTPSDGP

In the case of `CSCC[C@H](NC(=O)[C@H](Cc1ccccc1)NC(=O)CNC(=O)CNC(=O)[C@@H](N)Cc1ccc(O)cc1)C(=O)O` [OGF, Tyr-Gly-Gly-Phe-Met], the Ki is listed as 0.9 nM.
